These results are taken from ChEMBL document CHEMBL1131884, “Dicationic 2-fluorenonylcarbapenems: potent anti-MRS agents with improved solubility and pharmacokinetic properties” (Bioorg Med Chem Lett, 1999).

In one data set the target is T1, MecA (Staphylococcus aureus, UniProt Q7DHH4).
T1 sequence (Q7DHH4 whole entry): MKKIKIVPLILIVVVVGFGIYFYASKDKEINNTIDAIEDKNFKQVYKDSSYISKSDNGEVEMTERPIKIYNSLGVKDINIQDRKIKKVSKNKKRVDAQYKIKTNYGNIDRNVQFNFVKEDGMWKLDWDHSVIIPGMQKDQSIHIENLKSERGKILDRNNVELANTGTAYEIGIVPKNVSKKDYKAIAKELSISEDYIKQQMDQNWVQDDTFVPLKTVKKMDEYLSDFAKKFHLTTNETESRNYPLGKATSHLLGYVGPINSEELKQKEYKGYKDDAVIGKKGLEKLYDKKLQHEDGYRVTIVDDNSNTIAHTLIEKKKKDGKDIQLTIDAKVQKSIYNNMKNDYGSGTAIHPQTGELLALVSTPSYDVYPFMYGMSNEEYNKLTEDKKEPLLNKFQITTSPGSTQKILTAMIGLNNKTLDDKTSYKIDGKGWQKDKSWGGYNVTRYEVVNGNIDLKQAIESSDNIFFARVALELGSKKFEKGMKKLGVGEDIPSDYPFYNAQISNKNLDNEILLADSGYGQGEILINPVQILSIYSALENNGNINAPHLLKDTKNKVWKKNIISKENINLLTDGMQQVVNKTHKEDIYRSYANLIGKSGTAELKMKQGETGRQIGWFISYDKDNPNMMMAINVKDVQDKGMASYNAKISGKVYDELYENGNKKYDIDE
Briefly: Binding affinity against PBP2a receptor by competition analysis with [3H]benzylpenicillin using cell membrane fractions from the MRSA COL strain.

A short description of data set [1]: Half life evaluated in Rhesus monkeys at the dose of 10 mg/kg by iv bolus injection. In kind it is ADME, organism-based. Set-up: dose 10 mg/kg, route intravenous. Conditions: cercopithecidae, in vivo, read-out: Beta t1/2 (converted).
A further data set has as its system Streptococcus pyogenes. Briefly: Antibacterial activity against Streptococcus pyogenes.
For another data set, the system named is Bacteria. Briefly: Antibacterial activity against Gram negative bacteria. In kind it is functional.
Data set [2] in a line: Renal clearance evaluated in Rhesus monkeys at the dose of 10 mg/kg by iv bolus injection. In kind it is ADME, organism-based, Kidney. Set-up: dose 10 mg/kg, route intravenous. Conditions: cercopithecidae, in vivo, read-out: Renal clearance.
For the next data set, the system named is Streptococcus pneumoniae. Put plainly: Antibacterial activity against penicillin-resistant Streptococcus pneumoniae. In kind it is functional.
The target of data set [3] is T2, Dipeptidase 1 (Sus scrofa) (UniProt P22412).
T2 sequence (whole entry): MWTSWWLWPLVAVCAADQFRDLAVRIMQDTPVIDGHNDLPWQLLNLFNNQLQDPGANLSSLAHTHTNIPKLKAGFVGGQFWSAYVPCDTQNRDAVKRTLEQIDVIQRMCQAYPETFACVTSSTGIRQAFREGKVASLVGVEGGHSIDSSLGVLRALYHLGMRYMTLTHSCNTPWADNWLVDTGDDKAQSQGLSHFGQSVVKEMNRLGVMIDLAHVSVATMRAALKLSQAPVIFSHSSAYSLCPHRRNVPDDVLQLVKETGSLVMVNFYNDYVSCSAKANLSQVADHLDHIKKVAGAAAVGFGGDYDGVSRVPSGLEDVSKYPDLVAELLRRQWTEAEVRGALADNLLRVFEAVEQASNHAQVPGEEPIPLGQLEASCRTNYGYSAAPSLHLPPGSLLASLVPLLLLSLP
Briefly: Susceptibility to mammalian dehydropeptidase, DHP-1(Porcine).

In data set [4] the test system is Staphylococcus aureus. Briefly: Antibacterial activity against methicillin-resistant Staphylococcus aureus (MRSA). In kind it is functional.
The test system of another data set is Enterococcus faecium. Put plainly: Antibacterial activity against vancomycin-resistant Enterococcal faecium strain. In kind it is functional.
Data set [5] has as its system Enterococcus faecalis. Briefly: Antibacterial activity against Enterococcus faecalis. In kind it is functional.
A short description of data set [6]: Glomerular Filtration Rate(GFR) evaluated in Rhesus monkeys at the dose of 10 mg/kg by iv bolus injection. In kind it is ADME, organism-based. Set-up: dose 10 mg/kg, route intravenous. To be noted: cercopithecidae, in vivo.
Data set [7] concerns Enterococcus faecalis. Put plainly: Antibacterial activity against vancomycin-resistant Enterococcus faecalis strain. In kind it is functional.
For data set [8], the system named is Mus musculus. Put plainly: In vivo antibacterial activity against MRSA 76 virginia strain at the dose ~1 *10e7 cfu in 5 percent hog gastric mucin along with antibiotic by sc administration at 0 and +4 hrs in mice. In kind it is functional.
Data set [9] deals with Mus musculus. Briefly: In vivo antibacterial activity against MSSA MB 2985 strain at the dose ~4 *10e7 cfu in brain heart broth along with antibiotic by administration at 0 hour in mice. In kind it is functional.
Data set [10] can be described thus: AUC (area under curve) evaluated in Rhesus monkeys at the dose of 10 mg/kg by iv bolus injection. In kind it is ADME, organism-based, Plasma. To be noted: cercopithecidae, in vivo. Set-up: dose 10 mg/kg, route intravenous.
Data set [11] in a line: Plasma clearance evaluated in Rhesus monkeys at the dose of 10 mg/kg by iv bolus injection. In kind it is ADME, organism-based. On the set-up: dose 10 mg/kg, route intravenous. To be noted: cercopithecidae.
Data set [12] deals with Mus musculus. Put plainly: In vivo antibacterial activity against MSSA MB 2985 strain at the dose ~4 *10e7 cfu in brain heart broth along with antibiotic by sc administration at 0 hour in mice. In kind it is functional.
The subject of data set [13] is Staphylococcus aureus. Briefly: Antibacterial activity against MSSA (Methicillin-sensitive Staphylococcus aureus). In kind it is functional.
For another data set, the system named is Staphylococcus sp. Put plainly: Antibacterial activity against methicillin-resistant coagulase negative Staphylococci (MRCNS). In kind it is functional.

In general, IC50 refers to the concentration needed to halve the response being measured. Read a high IC50 as a need for much substance. As a reminder, the MIC is the lowest concentration that inhibits growth of the organism. Read a low MIC as a more susceptible organism. Broadly, the MIC50 is an inhibitory concentration at the 50% level, which refers to growth in some studies and to a panel of isolates in others. The MIC90 is an inhibitory concentration at the 90% level, which refers to growth in some studies and to a panel of isolates in others. By clearance is commonly meant the rate of elimination divided by the concentration. A high value points to a high capacity for elimination. `C[C@@H](O)[C@H]1C(=O)N2C(C(=O)[O-])=C(c3ccc4c(c3)-c3ccc(C[N+]56CC[N+](CC(N)=O)(CC5)CC6)cc3C4=O)C[C@H]12.[Cl-]`: the IC50 on MecA is 573 nM. Also, the half-life in data set [1] was 54.6 min. Also, the minimum inhibitory concentration (MIC) is less than 0.031 µg/mL in the data set on Streptococcus pyogenes; 1.05 µg/mL against Bacteria; 0.09 µg/mL against Streptococcus pneumoniae; 16 µg/mL against Enterococcus faecium; 0.125 µg/mL in the data set with Enterococcus faecalis [5]; 2 µg/mL in the data set on Enterococcus faecalis [7]. For the same compound, the MIC worked out at 1 µg/mL against Mus musculus [8], 0.004 µg/mL in the data set with Mus musculus [9] and 0.03 µg/mL with Staphylococcus aureus [13]. Moreover, the CL renal in data set [2] is 1.88 mL/min/kg. Moreover, the Rate of hydrolysis in data set [3] stood at 0.055. Moreover, the MIC50 against Staphylococcus aureus [4] stood at 1 µg/mL; against Staphylococcus sp., 2 µg/mL. In addition, the MIC90 amounted to 4 µg/mL in the data set on Staphylococcus aureus [4] and 2 µg/mL in the data set with Staphylococcus sp.. The compound also had a GFR in data set [6] of 2.96 mL/min/kg. The figures for the ED50 with Mus musculus [8] and with Mus musculus [12] were 0.5 mg kg-1 dose-1 and 0.042 mg/kg, respectively. In [10], this compound showed an AUC of 35.14 µg/mL. In data set [11], this compound registered a clearance of 4.74 mL/min/kg.
